Values joined by “and” are separate entries in the source; they are usually repeats but may differ in a detail not shown here. Equal entries are not always repeated.
Legend:
[1] = system: MCF7 Y537S ERα tumors; assay: MIND xenograft combination study, MCF7 Y537S ERα, bone histology; type: in vivo, NSG mice; conditions: for tumor metastases to the bone (H&E and IHC staining of bone marrow): Y537S model, 5 mg/kg LAS, in contrast to vehicle control, 5 mg/kg
[2] = system: MCF7 D538G ERα tumors; assay: MIND xenograft dose-response study, MCF7 D538G ERα; type: in vivo, NSG mice; conditions: for liver metastases (H&E): D538G mice
[3] = system: MCF7 WT ERα tumors; assay: MIND xenograft dose-response study, MCF7 WT ERα; type: in vivo, NSG mice; conditions: vehicle 4%, p = NS
[4] = system: breast cancer; conditions: PEARL trial, 5 years of LAS; cited from earlier work
[5] = system: MCF7 Y537S ERα tumors; assay: MIND xenograft dose-response study, MCF7 Y537S ERα; type: in vivo, NSG mice; conditions: 5 and 10 mg/kg s.c. 5 days/week, at sacrifice 70 days after treatment initiation, vs vehicle
Procedure: Mouse studies were performed in compliance with an approved Institutional Animal Care and Use Committee protocol at the University of Chicago. To better mimic the progression of ductal lesions to invasive disease, a mammary intraductal (MIND) mouse model was used. NSG (NOD.Cg-Prkdc^scid Il2rg^tm1Wjl/SzJ) mice (Jackson Laboratories) were anesthetized by intraperitoneal injections with a ketamine/xylazine (100/5 mg/kg) mixture in PBS prior to cancer cell injections. Single-cell suspensions of 250,000 WT or mutant MCF7 cells were injected in the mammary ducts of inguinal glands as previously described. Tumor cell growth in situ was followed once weekly or biweekly after injection via luminescence imaging with a Xenogen IVIS 200 instrument in the Integrated Small Animal Imaging Research Resource at the University of Chicago. […] Effects were evaluated in the models expressing WT, Y537S, and D538G ERα for monotherapies, and in the model expressing Y537S ERα for combination therapies.
Treatment was initiated 2 to 3 weeks (dose-response study) or at day 20 (combination study) after cancer cell injections. […] Metastases were evaluated with ex vivo imaging of excised long bones, brains, lungs, and livers and quantified by luciferase activity for the combination study.
Tissues were harvested and fixed in formalin. […] Lung and bone metastases were analyzed using the NSI-Elements software from Nikon. […]

[6] = fulvestrant 5 mg/mouse, 10 legs examined
[7] = lasofoxifene 5 mg/kg, 10 legs examined
[8] = lasofoxifene 10 mg/kg, 10 legs examined
[9] = palbociclib 35 mg/kg, 12 legs examined
[10] = palbociclib 70 mg/kg, 12 legs examined

C[C@]12CC[C@@H]3c4ccc(O)cc4C[C@@H](CCCCCCCCC[S+]([O-])CCCC(F)(F)C(F)(F)F)[C@H]3[C@@H]1CC[C@@H]2O (stereo partly shown) [Fulvestrant]
Number of legs with metastases [1, 6]: 2
Number of legs with necrosis [1, 6]: 1
% necrosis ([1]; fulvestrant 5 mg/mouse, leg with necrosis): 18%
Metastases, % of bone marrow, for each leg with metastasis ([1]; fulvestrant 5 mg/mouse, listed as FUL): 1% and 10%
liver metastases (H&E) ([2]; FUL 5 mg/mouse s.c. once per week): no liver metastases were observed
average percent area of lung metastasis ([3]; 5 mg/mouse s.c. once per week): 1%

Oc1ccc2c(c1)CC[C@H](c1ccccc1)[C@@H]2c1ccc(OCCN2CCCC2)cc1 [Lasofoxifene]
reduced risk for invasive ER+ breast cancer [4]: 83%
reduced risk for total breast cancers [4]: 79%
tumor metastases to the bone (H&E and IHC staining of bone marrow) [1]: No metastases were observed
tumor metastases to the bone (H&E and IHC staining of bone marrow) ([1]; listed as LAS): completely blocked
Number of legs with metastases [1, 7]: none
Number of legs with necrosis [1, 7]: none
Number of legs with metastases [1, 8]: none
Number of legs with necrosis [1, 8]: none
Reduction in tumor weight [5]: approximately 60%
liver metastases (H&E) ([2]; LAS 1, 5, 10 mg/kg s.c. 5 days/week): no liver metastases were observed
Reduction in tumor weight ([2]; D538G, 5 and 10 mg/kg s.c. 5 days/week, at sacrifice 70 days after treatment initiation, vs vehicle): ~50%
average percent area of lung metastasis ([3]; all tested doses (1, 5, 10 mg/kg s.c. 5 days/week)): 0.9–1.5%

CC(=O)c1c(C)c2cnc(Nc3ccc(N4CCNCC4)cn3)nc2n(C2CCCC2)c1=O [Palbociclib]
Number of legs with metastases [1, 9]: none
Number of legs with necrosis [1, 9]: none
Number of legs with metastases [1, 10]: none
Number of legs with necrosis [1, 10]: none

— publication PMC8117302 (Breast Cancer Research : BCR, 2021)
